In article PMC2880636 (Journal of medicinal chemistry, 2009):

Experiments:
MOR = MOR (Mus musculus, UniProt P42866); assay: 35S-GTP[γS]-binding functional assay in MOR expressing CHO cells; assay type: biochemical; settings: Emax relative to full agonist DAMGO (3 μM)
W318A mutant MOR = W318A mutant MOR (Mus musculus, UniProt P42866, W318A); assay type: binding
morphine antinociception = assay: warm-water tail immersion test, blockade of morphine antinociception; settings: sc, 5 min before morphine 10 mg/kg sc; 56 °C; tested 20 min later
μ opioid receptor (MOR) = μ opioid receptor (MOR) (Mus musculus, UniProt P42866); assay: competitive radioligand binding, [3H]naloxone, monocloned receptor in CHO cells
Chain of μ opioid receptor (MOR) (P42866 whole entry): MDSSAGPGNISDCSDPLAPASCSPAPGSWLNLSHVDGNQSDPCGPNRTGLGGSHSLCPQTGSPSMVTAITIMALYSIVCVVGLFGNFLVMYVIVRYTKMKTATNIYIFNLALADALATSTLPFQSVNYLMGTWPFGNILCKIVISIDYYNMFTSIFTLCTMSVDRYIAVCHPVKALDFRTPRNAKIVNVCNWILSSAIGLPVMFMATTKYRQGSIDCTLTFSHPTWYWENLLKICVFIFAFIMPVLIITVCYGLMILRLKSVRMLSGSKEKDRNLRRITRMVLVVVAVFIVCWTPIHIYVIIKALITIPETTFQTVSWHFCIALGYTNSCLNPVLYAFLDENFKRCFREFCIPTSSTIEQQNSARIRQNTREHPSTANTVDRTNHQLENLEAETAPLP

antinociception = assay: warm-water tail immersion test, agonist; settings: doses up to 100 mg/kg

Chain of W318A mutant MOR (P42866 whole entry W318A): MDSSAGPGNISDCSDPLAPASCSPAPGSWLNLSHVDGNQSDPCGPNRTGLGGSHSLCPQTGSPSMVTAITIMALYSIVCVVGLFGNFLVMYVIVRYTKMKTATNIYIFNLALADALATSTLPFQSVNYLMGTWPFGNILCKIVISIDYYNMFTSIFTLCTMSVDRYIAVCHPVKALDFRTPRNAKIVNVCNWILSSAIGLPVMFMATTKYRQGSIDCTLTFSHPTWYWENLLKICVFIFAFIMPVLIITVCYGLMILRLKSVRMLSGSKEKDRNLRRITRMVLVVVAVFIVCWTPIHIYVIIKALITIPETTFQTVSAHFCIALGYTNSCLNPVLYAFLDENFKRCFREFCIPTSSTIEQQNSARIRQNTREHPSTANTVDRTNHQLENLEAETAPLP
Chain of MOR (P42866 whole entry): as the sequence (P42866 whole entry) above

Structure (SMILES) | AD50 value (mg/kg (95% CL)) for blockade of morphine antinociception (morphine antinociception) | further results
O=C(N[C@H]1CC[C@@]2(O)[C@H]3Cc4ccc(O)c5c4[C@@]2(CCN3CC2CC2)[C@H]1O5)c1cc2ccccc2cn1 [Compound 9, 17-Cyclopropylmethyl-3,14β-dihydroxy-4,5α-epoxy-6α-[(3′-isoquinolyl)acetamido]morphinan] | 0.45 (0.27–0.78) mg/kg | % max of DAMGO (MOR): approximately 20%; IC50 (W318A mutant MOR): > 1000 nM; selectivity for the MOR over the DOR (μ opioid receptor (MOR)): over 200 fold; selectivity for the MOR over the KOR (μ opioid receptor (MOR)): approximately 50 fold; agonist effect in tail immersion test (antinociception): neither of these ligands produced any agonist effect
O=C(N[C@@H]1CC[C@@]2(O)[C@H]3Cc4ccc(O)c5c4[C@@]2(CCN3CC2CC2)[C@H]1O5)c1cc2ccccc2cn1 [Compound 10] | inactive | 
O=C(N[C@H]1CC[C@@]2(O)[C@H]3Cc4ccc(O)c5c4[C@@]2(CCN3CC2CC2)[C@H]1O5)c1cnc2ccccc2c1 [Compound 13, 17-Cyclopropylmethyl-3,14β-dihydroxy-4,5α-epoxy-6α-[(3′-quinolyl)acetamido]morphinan] | 4.45 (2.41–8.15) mg/kg | 
O=C(N[C@@H]1CC[C@@]2(O)[C@H]3Cc4ccc(O)c5c4[C@@]2(CCN3CC2CC2)[C@H]1O5)c1cnc2ccccc2c1 [Compound 14, 17-Cyclopropylmethyl-3,14β-dihydroxy-4,5α-epoxy-6β-[(3′-quinolyl)acetamido]morphinan] | 42.55 (23.67–76.51) mg/kg | 
C=CCN1CC[C@]23c4c5ccc(O)c4O[C@H]2C(=O)CC[C@@]3(O)[C@H]1C5 [naloxone, reference compound] | 0.05 (0.03–0.09) mg/kg | 
